Test results as given in publication PMC5584945, “Evaluation of robenidine analog NCL195 as a novel broad-spectrum antibacterial agent” (PLoS ONE, 2017).

Tests used:
[1] = system: Neisseria meningitidis; test: Activity against Neisseria meningitidis; assay type: cell-based
Protocol: (§1) MICs for NCL812 and its analogs (serial two-fold dilutions commencing at 128 μg/ml) were determined (in duplicate) in round bottom 96-well microtitre trays (Sarstedt 82.1582.001), using the broth micro-dilution method recommended by the Clinical and Laboratory Standards Institute (CLSI). […] MIC50, MIC90 and MIC range for NCL812, NCL195 and NCL219 were calculated against each S. pneumoniae, S. aureus or VRE isolate. To assess the potential activity of NCL195 against Gram-negative bacteria, MICs against Acinetobacter spp, E. coli, K. pneumoniae, P. aeruginosa, Proteus spp and Neisseria meningitidis were performed in the presence or absence of 0.08 mM-20 mM EDTA in a standard checkerboard assay.

[2] = system: A. baumannii, E. coli, K. pneumoniae and P. aeruginosa; test: MIC with sub-inhibitory EDTA or polymyxin B, Gram-negative panel; assay type: cell-based
Protocol: as §1

[3] = system: mice; conditions: cited from earlier work
[4] = system: S. pneumoniae D39; test: TEM morphometric analysis of cell membrane; assay type: cell-based, Streptococcus pneumoniae; conditions: 16 μg/ml, 6 h exposure
Protocol: (§2) Morphological appearance and morphometric analysis of the cell membrane of S. pneumoniae D39 after exposure to either 1 μg/ml, 4 μg/ml or 16 μg/ml of NCL812 was determined using TEM, as described in S1 File (Supplementary Methods). For S. aureus ATCC 29213, macromolecular (DNA, RNA, protein, cell wall, and lipid) synthesis inhibition studies were performed using concentrations of NCL812 that were equivalent to 0, 0.25, 0.5, 1, 2, 4 or 8-fold the MIC value (4 μg/ml), as detailed in S1 File (Supplementary Methods).
Effect of NCL812 on S. pneumoniae D39 cell membrane ultra-structure. Morphological appearance and morphometric analysis of the cell membrane of S. pneumoniae D39 after exposure to either 1 µg/ml, 4 µg/ml or 16 µg/ml of NCL812 was determined using TEM. […] Cultures were then exposed to either 1 µg/ml, 4 µg/ml or 16 µg/ml of NCL812 and harvested at 6 or 12 h by centrifugation at […] for 20 min and washed twice in 50 ml PBS. Critical time points for TEM work were determined by analyzing trends in the growth curves produced from the kill kinetics studies. Samples were resuspended in PBS containing 20% glycerol and stored at -80°C until required. […]
Samples were fixed using modified protocols defined by a previous study examining cell wall ultrastructure of S. pneumoniae. […] Images were obtained at 130000× magnification and analyzed using analySIS (Olympus Soft Imaging Systems).

[5] = system: S. aureus ATCC 29213; test: Macromolecular synthesis inhibition; assay type: cell-based, Staphylococcus aureus; conditions: 0.25 to 8-fold MIC; exponentially growing culture
Protocol: as §2
Effect of NCL812 on S. aureus ATCC29213 macromolecular synthesis. […]
A 5% DMSO treated culture served as the “no drug” control for all experiments. […] After washing three times with 5 ml of cold 5% TCA, the filters were rinsed two times with 5 ml 100% ethanol, allowed to dry, and then counted using a Beckman LS3801 liquid scintillation counter.
To test the effect of NCL812 on cell wall synthesis, bacteria were transferred to M9 minimal medium and added to 1.5 ml eppendorf tubes (100 μl/tube) containing various concentrations of test compound or control antibiotics (5 μl) at 20X the final concentration in 100% DMSO as described above. […] After washing three times with 5 ml of 0.1% SDS, the filters were rinsed two times with 5 ml of deionized water, allowed to dry, and then counted using a Beckman LS3801 liquid scintillation counter. […]

| SMILES | Activity against Neisseria meningitidis [1] | MIC ([2]; in the presence of sub-inhibitory concentrations of EDTA) [µg/mL] | MIC ([2]; in the presence of sub-inhibitory concentrations of polymyxin B) [µg/mL] | oral LD50 [3] [mg/kg] | Periplasmic space width ([4]; untreated 3.91 ± 0.14 nm) [nm] | Cell membrane thickness ([4]; untreated 4.35 ± 0.24 nm) [nm] | Effect on macromolecular synthesis pathways [5] |
| --- | --- | --- | --- | --- | --- | --- | --- |
| Cc1ccc(/C=N/Nc2cc(N/N=C/c3ccc(C)cc3)nc(N)n2)cc1 [NCL195, 4,6-bis(2-((E)-4-methylbenzylidene)hydrazinyl)pyrimidin-2-amine] | bactericidal | 0.25 to 8 | 0.25 to 1 |  |  |  |  |
| Cl.N=C(NN=Cc1ccc(Cl)cc1)NN=Cc1ccc(Cl)cc1 [NCL812, 2,2'-bis[(4-chlorophenyl)methylene] carbonimidic dihydrazide hydrochloride] |  |  |  | 150 | 4.54 ±0.096 | 6.43 ± 0.29 | inhibited DNA (A), RNA (B), protein (C), cell wall (D), and lipid (E) pathways |
